Laboratory results as given in ChEMBL document CHEMBL1159248, “Tyrosinase inhibitors from Bolivian medicinal plants” (J Nat Prod, 1995).
Activity calls are given as the source filed them. The calls are words filed in the database; no cut-off is given here.

Assays:
[1] = target: T1, Tyrosinase (Agaricus bisporus) (UniProt O42713); assay: Inhibition of mushroom tyrosinase assessed as L-3,4-dihydroxyphenylalanine oxidation
T1 sequence (whole entry): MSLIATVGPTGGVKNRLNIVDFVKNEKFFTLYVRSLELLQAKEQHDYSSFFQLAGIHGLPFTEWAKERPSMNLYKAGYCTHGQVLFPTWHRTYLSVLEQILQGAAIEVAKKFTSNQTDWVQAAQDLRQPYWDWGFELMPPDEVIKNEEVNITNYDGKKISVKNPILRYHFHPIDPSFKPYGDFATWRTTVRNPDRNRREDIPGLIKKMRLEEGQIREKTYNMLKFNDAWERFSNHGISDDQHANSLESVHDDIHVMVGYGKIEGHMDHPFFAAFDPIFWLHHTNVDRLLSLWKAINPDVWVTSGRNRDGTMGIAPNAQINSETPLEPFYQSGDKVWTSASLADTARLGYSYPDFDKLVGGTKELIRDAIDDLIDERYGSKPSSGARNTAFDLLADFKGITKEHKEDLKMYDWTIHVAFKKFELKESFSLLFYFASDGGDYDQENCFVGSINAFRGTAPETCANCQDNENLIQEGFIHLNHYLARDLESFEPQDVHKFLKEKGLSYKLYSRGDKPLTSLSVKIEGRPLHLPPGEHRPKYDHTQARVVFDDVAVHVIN

[2] = target: T1, Tyrosinase (Agaricus bisporus); assay: Competitive inhibition of mushroom tyrosinase assessed as L-3,4-dihydroxyphenylalanine oxidation
[3] = target: T1, Tyrosinase (Agaricus bisporus); assay: Inhibition of mushroom tyrosinase assessed as L-3,4-dihydroxyphenylalanine at 100 ug/ml

## O=C(O[C@H]1O[C@@H]2COC(=O)c3cc(O)c(O)c(O)c3-c3c(cc(O)c(O)c3O)C(=O)O[C@H]2[C@@H]2OC(=O)c3cc(O)c(O)c(O)c3-c3c(cc(O)c(O)c3O)C(=O)O[C@@H]12)c1cc(O)c(O)c(Oc2c(C(=O)O[C@H]3O[C@@H]4COC(=O)c5cc(O)c(O)c(O)c5-c5c(cc(O)c(O)c5O)C(=O)O[C@H]4[C@@H]4OC(=O)c5cc(O)c(O)c(O)c5-c5c(cc(O)c(O)c5O)C(=O)O[C@@H]34)cc(O)c(O)c2O)c1
[1]
  ID50: 61 µM

## O=C(/C=C/c1ccc(O)cc1)OC[C@H]1O[C@@H](Oc2cc(O)c3c(=O)c(O)c(-c4ccc(O)cc4)oc3c2)[C@H](O)[C@@H](O)[C@@H]1O
[1]
  ID50: 390 µM

## O=c1c(O)c(-c2ccc(O)c(O)c2)oc2cc(O)cc(O)c12
[2]
  Activity: Active
[1]
  ID50: 70 µM

## COc1cc(/C=C/C(=O)OC[C@H]2O[C@@H](Oc3cc(O)c4c(=O)c(O)c(-c5ccc(O)cc5)oc4c3)[C@H](O)[C@@H](O)[C@@H]2O)ccc1O
[1]
  ID50: 440 µM

## O=C(O)c1ccc(O)cc1
[2]
  Activity: Active
[1]
  ID50: 1900 µM

## O=c1cc(-c2ccc(O[C@@H]3O[C@H](CO)[C@@H](O)[C@H](O)[C@H]3O)c(O)c2)oc2cc(O)cc(O)c12
[3]
  inhibition: 100%
